# Measured values reported in paper PMC5218480 (PLoS ONE, 2017).
# Test system: MV-4-11 cells
# Experiment: Gene expression microarray analysis (Affymetrix PrimeView) and GSEA
# Assay type: cell-based, human
# Set-up: RFU PODN (11730768_x_at) / Fold change /veh PODN (11730768_x_at) / RFU LINC00158 (11744669_a_at) / Fold change /veh LINC00158 (11744669_a_at) / RFU DUSP10 (11751237_a_at) / Fold change /veh DUSP10 (11751237_a_at) / RFU ID3 (11757404_x_at) / Fold change /veh ID3 (11757404_x_at) / RFU PLEKHG5 (11737974_s_at) / Fold change /veh PLEKHG5 (11737974_s_at) / RFU LRRC4B (11730491_at) / Fold change /veh LRRC4B (11730491_at) / RFU GIMAP4 (11747438_a_at) / Fold change /veh GIMAP4 (11747438_a_at) / RFU KRT8 (11758183_x_at) / Fold change /veh KRT8 (11758183_x_at) / RFU CNN1 (11734310_a_at) / Fold change /veh CNN1 (11734310_a_at) / RFU VPS37D (11726825_at) / Fold change /veh VPS37D (11726825_at) / RFU C10orf10 (11716522_x_at) / Fold change /veh C10orf10 (11716522_x_at) / RFU KIR2DL2 /// KIR2DL4 /// KIR2DL5A /// KIR2DL5B /// KIR2DS1 /// KIR2DS2 /// KIR2DS3 /// KIR2DS4 /// KIR3DL3 /// KIR3DL3 /// KIR3DS1 (11738374_at) / Fold change /veh KIR2DL2 /// KIR2DL4 /// KIR2DL5A /// KIR2DL5B /// KIR2DS1 /// KIR2DS2 /// KIR2DS3 /// KIR2DS4 /// KIR3DL3 /// KIR3DL3 /// KIR3DS1 (11738374_at) / RFU C1QL1 (11718748_at) / Fold change /veh C1QL1 (11718748_at) / RFU TMPRSS4 (11747572_a_at) / Fold change /veh TMPRSS4 (11747572_a_at) / RFU HAMP (11756126_x_at) / Fold change /veh HAMP (11756126_x_at) / RFU RNFT2 (11725882_a_at) / Fold change /veh RNFT2 (11725882_a_at) / RFU NR4A2 (11747474_a_at) / Fold change /veh NR4A2 (11747474_a_at) / RFU ABCC12 (11746883_a_at) / Fold change /veh ABCC12 (11746883_a_at) / RFU TMEM136 (11760407_x_at) / Fold change /veh TMEM136 (11760407_x_at) / RFU CLDN22 /// WWC2 (11732394_at) / Fold change /veh CLDN22 /// WWC2 (11732394_at) / RFU HLA-DPB1 (11760878_x_at) / Fold change /veh HLA-DPB1 (11760878_x_at) / RFU SPINT1 (11716480_a_at) / Fold change /veh SPINT1 (11716480_a_at) / RFU GAP43 (11754022_s_at) / Fold change /veh GAP43 (11754022_s_at) / RFU A4GNT (11735810_at) / Fold change /veh A4GNT (11735810_at) / RFU PRB3 (11715151_x_at) / Fold change /veh PRB3 (11715151_x_at) / RFU TUBB4B (11761932_at) / Fold change /veh TUBB4B (11761932_at) / RFU CAPN14 (11732068_a_at) / Fold change /veh CAPN14 (11732068_a_at) / RFU TMCC2 (11721928_a_at) / Fold change /veh TMCC2 (11721928_a_at) / RFU IRGQ (11745062_a_at) / Fold change /veh IRGQ (11745062_a_at) / RFU FAM174B (11720279_a_at) / Fold change /veh FAM174B (11720279_a_at) / RFU TMPRSS4 (11748680_a_at) / Fold change /veh TMPRSS4 (11748680_a_at) / RFU FAM212B (11763350_a_at) / Fold change /veh FAM212B (11763350_a_at) / RFU PLEKHG5 (11743358_a_at) / Fold change /veh PLEKHG5 (11743358_a_at) / RFU ZSCAN30 (11745921_a_at) / Fold change /veh ZSCAN30 (11745921_a_at) / RFU CMKLR1 (11741424_a_at) / Fold change /veh CMKLR1 (11741424_a_at) / RFU LOC101060620 /// MAPK8IP1 (11723275_at) / Fold change /veh LOC101060620 /// MAPK8IP1 (11723275_at) / RFU SPTSSB (11747773_x_at) / Fold change /veh SPTSSB (11747773_x_at) / RFU PRSS12 (11739890_at) / Fold change /veh PRSS12 (11739890_at) / RFU BIN1 (11741810_x_at) / Fold change /veh BIN1 (11741810_x_at) / RFU WNT11 (11732464_a_at) / Fold change /veh WNT11 (11732464_a_at) / RFU C10orf10 (11716521_a_at) / Fold change /veh C10orf10 (11716521_a_at) / RFU C5orf56 (11738089_at) / Fold change /veh C5orf56 (11738089_at) / RFU CYB561 (11721691_x_at) / Fold change /veh CYB561 (11721691_x_at) / RFU ANKRD19P (11752326_a_at) / Fold change /veh ANKRD19P (11752326_a_at) / RFU OR2T12 /// OR2T33 /// OR2T8 (11738714_s_at) / Fold change /veh OR2T12 /// OR2T33 /// OR2T8 (11738714_s_at) / RFU VCAN (11748164_a_at) / Fold change /veh VCAN (11748164_a_at) / RFU JSRP1 (11732532_at) / Fold change /veh JSRP1 (11732532_at) / RFU KRTAP10-11 (11738290_x_at) / Fold change /veh KRTAP10-11 (11738290_x_at) / RFU MYO3A (11730013_a_at) / Fold change /veh MYO3A (11730013_a_at) / RFU EBF3 (11725865_a_at) / Fold change /veh EBF3 (11725865_a_at) / RFU CAMK2N1 (11719241_x_at) / Fold change /veh CAMK2N1 (11719241_x_at) / RFU C5orf56 (11738088_a_at) / Fold change /veh C5orf56 (11738088_a_at) / RFU OLFML3 (11715873_a_at) / Fold change /veh OLFML3 (11715873_a_at) / RFU LOC100653217 /// NTM (11731650_a_at) / Fold change /veh LOC100653217 /// NTM (11731650_a_at) / RFU MAPK11 (11762145_a_at) / Fold change /veh MAPK11 (11762145_a_at) / RFU FIZ1 (11724087_x_at) / Fold change /veh FIZ1 (11724087_x_at) / RFU OASL (11726364_x_at) / Fold change /veh OASL (11726364_x_at) / RFU SOX15 (11748057_x_at) / Fold change /veh SOX15 (11748057_x_at) / RFU CD79A (11719716_a_at) / Fold change /veh CD79A (11719716_a_at) / RFU HIST1H1D (11736915_at) / Fold change /veh HIST1H1D (11736915_at) / RFU CASKIN2 (11723855_a_at) / Fold change /veh CASKIN2 (11723855_a_at) / RFU LOC730098 (11760151_x_at) / Fold change /veh LOC730098 (11760151_x_at) / RFU OR4N2 (11742367_at) / Fold change /veh OR4N2 (11742367_at) / RFU PRRT2 (11749266_a_at) / Fold change /veh PRRT2 (11749266_a_at) / RFU SNX32 (11753110_a_at) / Fold change /veh SNX32 (11753110_a_at) / RFU CDHR5 (11726645_a_at) / Fold change /veh CDHR5 (11726645_a_at) / RFU RCAN1 (11760418_a_at) / Fold change /veh RCAN1 (11760418_a_at) / RFU FAM167A (11723789_a_at) / Fold change /veh FAM167A (11723789_a_at) / RFU FAM26E (11764081_at) / Fold change /veh FAM26E (11764081_at) / RFU ISYNA1 (11749810_s_at) / Fold change /veh ISYNA1 (11749810_s_at) / RFU ACY1 (11761880_at) / Fold change /veh ACY1 (11761880_at) / RFU 11764098_at / Fold change /veh 11764098_at / RFU SAMD14 (11745864_x_at) / Fold change /veh SAMD14 (11745864_x_at) / RFU NPB (11741838_a_at) / Fold change /veh NPB (11741838_a_at) / RFU TMPRSS6 (11731388_a_at) / Fold change /veh TMPRSS6 (11731388_a_at) / RFU KRTAP10-2 (11738614_at) / Fold change /veh KRTAP10-2 (11738614_at) / RFU ARHGAP8 /// PRR5-ARHGAP8 (11727945_x_at) / Fold change /veh ARHGAP8 /// PRR5-ARHGAP8 (11727945_x_at) / RFU KRTAP5-7 /// NADSYN1 (11734609_at) / Fold change /veh KRTAP5-7 /// NADSYN1 (11734609_at) / RFU RASL12 (11751679_a_at) / Fold change /veh RASL12 (11751679_a_at) / RFU CDKN2B (11736163_a_at) / Fold change /veh CDKN2B (11736163_a_at) / RFU PRF1 (11729649_at) / Fold change /veh PRF1 (11729649_at) / RFU, ZNF638 /// ZNF638-IT1 / Fold change vs veh, ZNF638 /// ZNF638-IT1 / RFU, PANK3 / Fold change vs veh, PANK3 / RFU, SH3YL1 / Fold change vs veh, SH3YL1 / RFU, ZEB2 / Fold change vs veh, ZEB2 / RFU, NRIP1 / Fold change vs veh, NRIP1 / RFU, PTTG1IP / Fold change vs veh, PTTG1IP / RFU, CAPN2 / Fold change vs veh, CAPN2 / RFU, MED14 / Fold change vs veh, MED14 / RFU, SNORA58 / Fold change vs veh, SNORA58 / RFU, C1orf63 / Fold change vs veh, C1orf63 / RFU, LRRFIP1 / Fold change vs veh, LRRFIP1 / RFU, NDUFAF7 / Fold change vs veh, NDUFAF7 / RFU, SLC12A2 / Fold change vs veh, SLC12A2 / RFU, IBTK / Fold change vs veh, IBTK / RFU, ESF1 / Fold change vs veh, ESF1 / Fold change vs veh, TMEM50B / RFU, TAOK1 / Fold change vs veh, TAOK1 / RFU, ACBD3 / Fold change vs veh, ACBD3 / RFU, TMA16 / Fold change vs veh, TMA16 / RFU, RWDD3 / Fold change vs veh, RWDD3 / RFU, BCAT1 / Fold change vs veh, BCAT1 / RFU, EDEM3 / Fold change vs veh, EDEM3 / RFU, TMEM33 / Fold change vs veh, TMEM33 / RFU, WDR75 / Fold change vs veh, WDR75 / RFU, AHCTF1 / Fold change vs veh, AHCTF1 / RFU, TFRC / Fold change vs veh, TFRC / RFU, ZDHHC17 / Fold change vs veh, ZDHHC17 / RFU, NOM1 / Fold change vs veh, NOM1 / RFU, ARL8B / Fold change vs veh, ARL8B / RFU, ZBTB11 / Fold change vs veh, ZBTB11 / RFU, TAMM41 / Fold change vs veh, TAMM41 / RFU, KIAA1704 /// LOC100996395 / Fold change vs veh, KIAA1704 /// LOC100996395 / RFU, ING1 / Fold change vs veh, ING1 / RFU, TRMT61B / Fold change vs veh, TRMT61B / RFU, FUBP3 / Fold change vs veh, FUBP3 / RFU, TP53 / Fold change vs veh, TP53 / RFU, TNKS2 / Fold change vs veh, TNKS2 / RFU, ZFP14 / Fold change vs veh, ZFP14 / RFU, ACTR2 / Fold change vs veh, ACTR2 / RFU, PPP3R1 / Fold change vs veh, PPP3R1 / RFU, PIK3R1 / Fold change vs veh, PIK3R1 / RFU, HNRNPA1 / Fold change vs veh, HNRNPA1 / RFU, RNF170 / Fold change vs veh, RNF170 / RFU, ZNF28 / Fold change vs veh, ZNF28 / RFU, RNGTT / Fold change vs veh, RNGTT / RFU, OGT / Fold change vs veh, OGT / RFU, BRD1 / Fold change vs veh, BRD1 / RFU, MARS / Fold change vs veh, MARS / RFU, ZNF655 / Fold change vs veh, ZNF655 / RFU, FAHD1 / Fold change vs veh, FAHD1 / RFU, BDP1 / Fold change vs veh, BDP1 / RFU, LRRCC1 / Fold change vs veh, LRRCC1 / RFU, ARID1A / Fold change vs veh, ARID1A / RFU, ZNF146 / Fold change vs veh, ZNF146 / RFU, ZNF330 / Fold change vs veh, ZNF330 / RFU, GPN3 / Fold change vs veh, GPN3 / RFU, C9orf123 / Fold change vs veh, C9orf123 / RFU, N4BP2L2 / Fold change vs veh, N4BP2L2 / RFU, ARFIP1 / Fold change vs veh, ARFIP1 / RFU, FAM179B / Fold change vs veh, FAM179B / RFU, BCL10 / Fold change vs veh, BCL10 / RFU, UHRF1BP1L / Fold change vs veh, UHRF1BP1L / RFU, BET1 / Fold change vs veh, BET1 / RFU, CNOT2 / Fold change vs veh, CNOT2 / RFU, ZNF268 / Fold change vs veh, ZNF268 / Fold change vs veh, ZNF507 / RFU, DGCR2 / Fold change vs veh, DGCR2 / RFU, WDSUB1 / Fold change vs veh, WDSUB1 / Fold change vs veh, HSP90B1 /// MIR3652 / RFU, ADSS / Fold change vs veh, ADSS / RFU, GK / Fold change vs veh, GK / RFU, ZNF148 / Fold change vs veh, ZNF148 / RFU, TAF9 / Fold change vs veh, TAF9 / RFU, SLC1A5 / Fold change vs veh, SLC1A5 / RFU, SLMO2 / Fold change vs veh, SLMO2 / RFU, ABCC4 / Fold change vs veh, ABCC4 / RFU, LOC101060439 /// RAP1B / Fold change vs veh, LOC101060439 /// RAP1B / RFU, RFX7 / Fold change vs veh, RFX7 / RFU, GTPBP10 / Fold change vs veh, GTPBP10 / RFU, CNEP1R1 / Fold change vs veh, CNEP1R1 / RFU, BIVM-ERCC5 /// ERCC5 / Fold change vs veh, BIVM-ERCC5 /// ERCC5 / RFU, ILF3 / Fold change vs veh, ILF3 / RFU 11762660_at / Fold change /veh 11762660_at / RFU VCAN (11757783_s_at) / Fold change /veh VCAN (11757783_s_at) / RFU DDX43 (11728927_at) / Fold change /veh DDX43 (11728927_at) / RFU KRT8 (11758188_x_at) / Fold change /veh KRT8 (11758188_x_at) / RFU NKD1 (11759106_at) / Fold change /veh NKD1 (11759106_at) / RFU SRD5A1 (11742802_a_at) / Fold change /veh SRD5A1 (11742802_a_at) / RFU TPSAB1 /// TPSB2 (11721975_s_at) / Fold change /veh TPSAB1 /// TPSB2 (11721975_s_at) / RFU GSTM3 (11746129_a_at) / Fold change /veh GSTM3 (11746129_a_at) / RFU IL23R (11737362_x_at) / Fold change /veh IL23R (11737362_x_at) / RFU TMEM51 (11727254_a_at) / Fold change /veh TMEM51 (11727254_a_at) / RFU PIWIL2 (11732686_x_at) / Fold change /veh PIWIL2 (11732686_x_at) / RFU ORM1 (11744905_x_at) / Fold change /veh ORM1 (11744905_x_at) / RFU CCDC152 (11743942_at) / Fold change /veh CCDC152 (11743942_at) / RFU ECM1 (11717891_a_at) / Fold change /veh ECM1 (11717891_a_at) / RFU IL23R (11748794_a_at) / Fold change /veh IL23R (11748794_a_at) / RFU TNFAIP8L3 (11732012_x_at) / Fold change /veh TNFAIP8L3 (11732012_x_at) / RFU MBOAT4 (11741988_at) / Fold change /veh MBOAT4 (11741988_at) / RFU 11764193_at / Fold change /veh 11764193_at / RFU TMEM53 (11763286_at) / Fold change /veh TMEM53 (11763286_at) / RFU MAGEB2 (11727129_at) / Fold change /veh MAGEB2 (11727129_at) / RFU TMEM200A (11744735_a_at) / Fold change /veh TMEM200A (11744735_a_at) / RFU CCDC152 (11751479_a_at) / Fold change /veh CCDC152 (11751479_a_at) / RFU FAM211A (11726209_a_at) / Fold change /veh FAM211A (11726209_a_at) / RFU RGS16 (11746705_a_at) / Fold change /veh RGS16 (11746705_a_at) / RFU VCAN (11755009_s_at) / Fold change /veh VCAN (11755009_s_at) / RFU RHOB (11743442_s_at) / Fold change /veh RHOB (11743442_s_at) / RFU RGS16 (11720943_a_at) / Fold change /veh RGS16 (11720943_a_at) / RFU RGS16 (11720944_at) / Fold change /veh RGS16 (11720944_at) / RFU, VPS4B / Fold change vs veh, VPS4B / RFU, CREB1 / Fold change vs veh, CREB1 / RFU, DNAJC13 / Fold change vs veh, DNAJC13 / RFU, GNAQ / Fold change vs veh, GNAQ / RFU, CDK5R1 / Fold change vs veh, CDK5R1 / RFU, ZRANB3 / Fold change vs veh, ZRANB3 / RFU, CUL4A / Fold change vs veh, CUL4A / RFU, CCNY / Fold change vs veh, CCNY / RFU, UFL1 / Fold change vs veh, UFL1 / RFU, COG3 / Fold change vs veh, COG3 / RFU, DIAPH2 / Fold change vs veh, DIAPH2 / RFU, SKA2 / Fold change vs veh, SKA2 / RFU, AFF3 / Fold change vs veh, AFF3 / RFU, LMF1 / Fold change vs veh, LMF1 / RFU, IPO11 / Fold change vs veh, IPO11 / RFU, DFFB / Fold change vs veh, DFFB / RFU, FOXP1 / Fold change vs veh, FOXP1 / RFU, CARD8 / Fold change vs veh, CARD8 / RFU, STRN3 / Fold change vs veh, STRN3 / RFU, ADK / Fold change vs veh, ADK / RFU, RASSF2 / Fold change vs veh, RASSF2 / RFU, WIPF1 / Fold change vs veh, WIPF1 / RFU, LARP1B / Fold change vs veh, LARP1B / RFU, RASA1 / Fold change vs veh, RASA1 / RFU, RB1 / Fold change vs veh, RB1 / RFU, PPFIA1 / Fold change vs veh, PPFIA1 / RFU, MAT2A / Fold change vs veh, MAT2A / RFU, CCT5 / Fold change vs veh, CCT5 / RFU, WDR92 / Fold change vs veh, WDR92 / RFU, CUX1 / Fold change vs veh, CUX1 / RFU, TTC7A / Fold change vs veh, TTC7A / RFU, TMEM135 / Fold change vs veh, TMEM135 / RFU, DEPTOR / Fold change vs veh, DEPTOR / RFU, CPM / Fold change vs veh, CPM / RFU, DNAJB6 / Fold change vs veh, DNAJB6 / RFU, CACNA2D3 / Fold change vs veh, CACNA2D3 / RFU, DTX4 / Fold change vs veh, DTX4 / RFU, TFCP2 / Fold change vs veh, TFCP2 / RFU, GMCL1 /// GMCL1P1 / Fold change vs veh, GMCL1 /// GMCL1P1 / RFU, AEBP2 / Fold change vs veh, AEBP2 / RFU, SNHG1 /// SNORD22 /// SNORD25 /// SNORD26 /// SNORD27 /// SNORD28 /// SNORD29 /// SNORD31 / Fold change vs veh, SNHG1 /// SNORD22 /// SNORD25 /// SNORD26 /// SNORD27 /// SNORD28 /// SNORD29 /// SNORD31 / Fold change (Aza/veh), C12orf56 (ProbeSet 11735607_a_at) / Fold change (ACY-1035/veh), C12orf56 (ProbeSet 11735607_a_at) / Fold change (Aza/veh), FGFR1OP (ProbeSet 11751329_s_at) / Fold change (ACY-1035/veh), FGFR1OP (ProbeSet 11751329_s_at) / Fold change (Aza/veh), VPS36 (ProbeSet 11739960_a_at) / Fold change (ACY-1035/veh), VPS36 (ProbeSet 11739960_a_at) / RFU SYPL1 (11715823_x_at) / Fold change /veh SYPL1 (11715823_x_at) / RFU IGFBP7 (11715501_s_at) / Fold change /veh IGFBP7 (11715501_s_at) / RFU REEP3 (11722064_at) / Fold change /veh REEP3 (11722064_at) / RFU IGLL1 (11728026_x_at) / Fold change /veh IGLL1 (11728026_x_at): dose or concentration left out as unconfirmed
# Details: MV-4-11 cells, 48 hours
compound,measurement,value
Nc1ncn([C@@H]2O[C@H](CO)[C@@H](O)[C@H]2O)c(=O)n1 [azacitidine],RFU TUBB4B (11761932_at),18.89 RFU
